Experimental data reported in the supplement of paper PMC6045584.
± gives the standard deviation of the averaged measurements.

What was measured:
[1] = compound: C=CCNC1=C2C[C@@H](C)C[C@H](OC)[C@H](O)[C@@H](C)/C=C(\C)[C@H](OC(N)=O)[C@@H](OC)/C=C\C=C(/C)C(=O)NC(=CC1=O)C2=O [17-AAG]; experiment: surviving fraction relative to DMSO-only wells; higher = less growth inhibition; conditions: exposure time: 5 days
In short: (§1)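 Log-phase tumour cell lines, 250–500 cells per well in 384-well plates, received inhibitors at 0.5, 1, 5, 10, 50, 100, 500 and 1000 nM continuously for five days, starting 24 hours after seeding. Viability was quantified with CellTiter-Glo luminescence and normalised to the median of DMSO-only wells to give surviving fraction. Three screens were run per line, and a line stayed in only with replicate Pearson r >0.7 and median Z' >0.3.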

[2] = compound: CN1CC[C@H](c2c(O)cc(O)c3c(=O)cc(-c4ccccc4Cl)oc23)[C@H](O)C1 [FLAVOPIRIDOL]; experiment: as above; conditions: exposure time: 5 days
In short: as §1

Test System | surviving fraction ([1]; 0.5 nM) | surviving fraction ([1]; 1 nM) | surviving fraction ([1]; 5 nM) | surviving fraction ([1]; 10 nM) | surviving fraction ([1]; 50 nM) | surviving fraction ([1]; 100 nM) | surviving fraction ([1]; 500 nM) | surviving fraction ([1]; 1000 nM) | surviving fraction ([2]; 0.5 nM) | surviving fraction ([2]; 1 nM) | surviving fraction ([2]; 5 nM) | surviving fraction ([2]; 10 nM) | surviving fraction ([2]; 50 nM) | surviving fraction ([2]; 100 nM) | surviving fraction ([2]; 500 nM) | surviving fraction ([2]; 1000 nM)
MDAMB436 BREAST | 0.801 ± 0.045 | 0.797 ± 0.073 | 0.749 ± 0.077 | 0.581 ± 0.039 | 0.318 ± 0.027 | 0.344 ± 0.033 | 0.328 ± 0.042 | 0.352 ± 0.015 | 0.998 ± 0.042 | 0.991 ± 0.071 | 1.06 ± 0.14 | 0.941 ± 0.036 | 0.556 ± 0.026 | 0.183 ± 0.024 | 0.185 ± 0.0025 | 0.182 ± 0.0028
MDAMB453 BREAST | 1.01 ± 0.017 | 1.04 ± 0.03 | 0.842 ± 0.057 | 0.356 ± 0.014 | 0.052 ± 0.027 | 0.048 ± 0.012 | 0.0367 ± 0.0049 | 0.042 ± 0.018 | 1.039 ± 0.0056 | 1.03 ± 0.071 | 1.1 ± 0.083 | 1.01 ± 0.02 | 0.586 ± 0.056 | 0.134 ± 0.022 | 0.085 ± 0.017 | 0.074 ± 0.025
MDAMB468 BREAST | 0.901 ± 0.05 | 0.826 ± 0.03 | 0.95 ± 0.039 | 0.931 ± 0.04 | 0.92 ± 0.082 | 0.31 ± 0.022 | 0.219 ± 0.029 | 0.218 ± 0.021 | 1.03 ± 0.031 | 0.967 ± 0.064 | 1.03 ± 0.045 | 0.991 ± 0.04 | 0.734 ± 0.061 | 0.15 ± 0.016 | 0.0447 ± 0.005 | 0.04 ± 0.0061
MFM223 BREAST | 0.757 ± 0.067 | 0.749 ± 0.036 | 0.503 ± 0.049 | 0.33 ± 0.022 | 0.119 ± 0.0098 | 0.0942 ± 0.006 | 0.08 ± 0.0044 | 0.095 ± 0.006 | 1.45 ± 0.57 | 1.45 ± 0.64 | 1.46 ± 0.61 | 1.25 ± 0.4 | 0.351 ± 0.032 | 0.119 ± 0.045 | 0.0438 ± 0.021 | 0.0642 ± 0.061
MG63 BONE | 0.886 ± 0.028 | 0.88 ± 0.012 | 0.976 ± 0.028 | 0.919 ± 0.017 | 0.957 ± 0.014 | 0.733 ± 0.021 | 0.258 ± 0.0081 | 0.173 ± 0.0036 | 1.06 ± 0.022 | 1.06 ± 0.023 | 1.165 ± 0.0064 | 1.19 ± 0.033 | 1.35 ± 0.045 | 0.782 ± 0.049 | 0.0347 ± 0.0023 | 0.0313 ± 0.0015
MHM BONE | 0.973 ± 0.016 | 0.966 ± 0.026 | 0.987 ± 0.043 | 1.019 ± 0.0027 | 1.04 ± 0.02 | 0.912 ± 0.048 | 0.262 ± 0.023 | 0.184 ± 0.0051 | 1.02 ± 0.036 | 1.04 ± 0.035 | 1.06 ± 0.024 | 1.11 ± 0.025 | 1.227 ± 0.0078 | 1.16 ± 0.048 | 0.0433 ± 0.0021 | 0.0397 ± 0.0021
NCIH441 LUNG | 0.906 ± 0.13 | 1.02 ± 0.04 | 0.982 ± 0.046 | 0.993 ± 0.074 | 0.609 ± 0.069 | 0.416 ± 0.033 | 0.3 ± 0.025 | 0.308 ± 0.018 | 1.18 ± 0.06 | 1.12 ± 0.026 | 1.09 ± 0.042 | 1.08 ± 0.11 | 0.953 ± 0.081 | 0.698 ± 0.17 | 0.103 ± 0.024 | 0.0917 ± 0.024
NOS1 BONE | 0.804 ± 0.1 | 0.831 ± 0.081 | 0.759 ± 0.069 | 0.651 ± 0.063 | 0.379 ± 0.023 | 0.215 ± 0.027 | 0.0853 ± 0.0021 | 0.0827 ± 0.008 | 1.25 ± 0.046 | 1.19 ± 0.054 | 1.22 ± 0.15 | 1.26 ± 0.084 | 0.54 ± 0.061 | 0.083 ± 0.0027 | 0.031 ± 0.004 | 0.0383 ± 0.0084
NY BONE | 0.9133 ± 0.0047 | 0.924 ± 0.024 | 0.975 ± 0.0089 | 0.771 ± 0.054 | 0.0967 ± 0.0049 | 0.11 ± 0.0063 | 0.068 ± 0.0046 | 0.0527 ± 0.0045 | 0.984 ± 0.015 | 0.977 ± 0.017 | 1.05 ± 0.027 | 1.01 ± 0.05 | 0.813 ± 0.071 | 0.0513 ± 0.01 | 0.025 ± 0.001 | 0.024 ± 0.001
OS25HAL BONE | 0.9 ± 0.024 | 0.897 ± 0.041 | 0.909 ± 0.05 | 0.894 ± 0.05 | 0.948 ± 0.015 | 0.762 ± 0.13 | 0.146 ± 0.0098 | 0.141 ± 0.0098 | 1.01 ± 0.035 | 0.996 ± 0.058 | 1.12 ± 0.052 | 1.06 ± 0.021 | 1.1 ± 0.036 | 0.101 ± 0.015 | 0.048 ± 0.013 | 0.0443 ± 0.012
OSHN BONE | 0.9227 ± 0.006 | 0.923 ± 0.011 | 0.943 ± 0.013 | 0.937 ± 0.018 | 0.921 ± 0.018 | 0.232 ± 0.071 | 0.123 ± 0.0085 | 0.108 ± 0.0066 | 1.08 ± 0.018 | 1.08 ± 0.022 | 1.114 ± 0.0095 | 1.08 ± 0.018 | 1.23 ± 0.035 | 0.382 ± 0.041 | 0.0357 ± 0.0055 | 0.0323 ± 0.0075
PCI30 HEADNECK | 0.915 ± 0.067 | 0.972 ± 0.059 | 1.01 ± 0.12 | 1.09 ± 0.029 | 0.302 ± 0.031 | 0.134 ± 0.019 | 0.0433 ± 0.0093 | 0.0393 ± 0.0015 | 1.02 ± 0.019 | 1.02 ± 0.038 | 1.15 ± 0.031 | 1.13 ± 0.029 | 0.701 ± 0.028 | 0.085 ± 0.0053 | 0.032 ± 0.0017 | 0.0303 ± 0.00058
RDES SOFT TISSUE | 0.776 ± 0.22 | 0.784 ± 0.055 | 0.674 ± 0.081 | 0.692 ± 0.18 | 0.745 ± 0.11 | 0.992 ± 0.26 | 0.335 ± 0.042 | 0.16 ± 0.0035 | 1.36 ± 0.11 | 1.3 ± 0.12 | 1.39 ± 0.07 | 1.44 ± 0.059 | 1.66 ± 0.12 | 0.945 ± 0.2 | 0.0467 ± 0.0025 | 0.0383 ± 0.0025
S68 BREAST | 0.8 ± 0.19 | 0.706 ± 0.12 | 0.126 ± 0.0072 | 0.0657 ± 0.0075 | 0.0677 ± 0.0091 | 0.064 ± 0.0044 | 0.057 ± 0.0079 | 0.0607 ± 0.0047 | 1.18 ± 0.31 | 0.847 ± 0.12 | 0.765 ± 0.091 | 1.2 ± 0.31 | 0.888 ± 0.29 | 0.483 ± 0.068 | 0.0377 ± 0.0021 | 0.0367 ± 0.0055
SAOS2 BONE | 0.829 ± 0.046 | 0.775 ± 0.01 | 0.859 ± 0.099 | 0.77 ± 0.073 | 0.215 ± 0.031 | 0.0823 ± 0.004 | 0.069 ± 0.0087 | 0.0783 ± 0.0058 | 1.23 ± 0.13 | 1.18 ± 0.06 | 1.26 ± 0.039 | 1.14 ± 0.04 | 0.889 ± 0.048 | 0.159 ± 0.022 | 0.0307 ± 0.0015 | 0.0247 ± 0.0025
SCC003 HEADNECK | 0.839 ± 0.058 | 0.89 ± 0.024 | 0.882 ± 0.04 | 0.789 ± 0.14 | 1.01 ± 0.074 | 0.396 ± 0.012 | 0.195 ± 0.017 | 0.0693 ± 0.0095 | 1.06 ± 0.061 | 1.1 ± 0.083 | 1.12 ± 0.055 | 0.987 ± 0.084 | 0.667 ± 0.032 | 0.392 ± 0.14 | 0.0627 ± 0.0064 | 0.0573 ± 0.0032
